According to patent US20180133203A1, “METHODS OF TREATING LIVER DISEASE” (Gilead Sciences, Inc., priority 2016, published 2018):

Assays:
[1] = tested on: FFD mice; test: Total liver cholesterol content in FFD mouse model of NASH; assay type: in vivo, male C57BL/6 mice; conditions: Formula (I) 0.15% admixture in diet, Formula (III) 10 mg/kg PO QD, months 7-10
Description: The following study was conducted to evaluate the efficacy of the combination of an ASK1 inhibitor and an FXR agonist in a mouse model of non-alcoholic steatohepatitis (NASH), relative to the efficacy of the individual agents alone in the model. NASH was induced in male C57BL/6 mice by chronic administration of a “fast food” diet (FFD) high in saturated fats, cholesterol and sugars for a total of 10 months, whereas lean control animals were maintained on a normal chow diet. A NASH phenotype was established in FFD mice compared to control mice by 7 months, and was characterized by obesity, hypercholesterolemia, and AST/ALT elevation; and by histological features of NASH such as hepatocellular macrovesicular steatosis and ballooning degeneration. […] Endpoint analyses included morphometric quantification of liver steatosis (% of steatotic area), liver cholesterol content, serum ALT/AST levels, serum bile acid levels, and nanostring evaluation of gene expression. […] After centrifugation, an aliquot of the organic upper layer, containing cholesterol and cholesterol esters, was analyzed. […] The peak area of the m/z 369 [M-H2O]+→161+ product ion of cholesterol was measured against the peak area of the cholesterol-D6 product ion of m/z 375 [M-H2O]+→167+. […]

[2] = tested on: FFD mice; test: Hepatic steatosis (% vacuolation area, H&E morphometry) in fast food diet (FFD) mouse model of NASH; assay type: in vivo, male C57BL/6 mice; conditions: Formula (I) 0.15% admixture in diet, Formula (III) 10 mg/kg PO QD, months 7-10
Description: The following study was conducted to evaluate the efficacy of the combination of an ASK1 inhibitor and an FXR agonist in a mouse model of non-alcoholic steatohepatitis (NASH), relative to the efficacy of the individual agents alone in the model. NASH was induced in male C57BL/6 mice by chronic administration of a “fast food” diet (FFD) high in saturated fats, cholesterol and sugars for a total of 10 months, whereas lean control animals were maintained on a normal chow diet. A NASH phenotype was established in FFD mice compared to control mice by 7 months, and was characterized by obesity, hypercholesterolemia, and AST/ALT elevation; and by histological features of NASH such as hepatocellular macrovesicular steatosis and ballooning degeneration. […] Endpoint analyses included morphometric quantification of liver steatosis (% of steatotic area), liver cholesterol content, serum ALT/AST levels, serum bile acid levels, and nanostring evaluation of gene expression. […] Extent of steatosis was determined on H&E stained tissue sections using the Definiens Developer software package. […] The number and size of these areas were enumerated and the total steatotic area was expressed as a percentage of total liver tissue cross-sectional area. […]

O=C(O)c1ccnc(N2CC(O)(c3ccc(OCc4c(-c5c(Cl)cccc5Cl)noc4C4CC4)cc3Cl)C2)c1 [Formula (III)]
reduction of liver cholesterol content [1]: 36% | reduction in steatosis (H&E stained liver sections) [2]: 27%

O=C(Nc1cccc(-c2nncn2C2CC2)c1)c1cc(-n2cnc(C3CC3)c2)ccn1 [Formula (I)]
reduction of liver cholesterol content [1]: 74% | reduction in steatosis (H&E stained liver sections) [2]: 39%
